Series [1] relates to Lewis lung cancer cell line (LLC). The experiment in a line: Liponanoparticle cell viability MTS assay, LLC. The series is classed as cell-based. The protocol: (§1) In a 96 well plate, 2×10^3 cells were plated. After 4 h, cells were treated with different concentrations of free drug or lipo-nanoparticles. Cells without any treatment were kept as control. After 48 h, cell viability was assessed using standard MTS assay according to manufacturer's instructions.
A general note: Tetrazolium assays rely on reduction of a dye to a coloured formazan, in cell work by metabolically active cells.

A further series deals with 4T1 breast cancer cells. The experiment in a line: Liponanoparticle cell viability MTS assay, 4T1. Format: cell-based. The conditions noted are these: three time points. The protocol: In a 96 well plate, 2×10^3 cells were plated. After 4 h, cells were treated with different concentrations of free drug or lipo-nanoparticles. Cells without any treatment were kept as control. […]

For series [2], the system named is Lewis Lung Carcinoma cell lines (LLC). The series can be described thus: MTS cell viability assay, LLC cells. The series is classed as cell-based, murine. The conditions noted are these: for EC50: cisplatin-equivalent concentration; for IC50: 48 hours post-incubation, read-out: IC50 (LLC cell kill). The source says:
The absorbance reflects the number of surviving cells.

The test system of series [3] is cisplatin-resistant cancer cell line (CP20). The experiment in a line: Liponanoparticle cell viability MTS assay, CP20. Format: cell-based. Here is the method:
as §1

The test system of series [4] is K-ras LSL/+ /Pten fl/fl ovarian adenocarcinomas. The experiment in a line: In vivo murine ovarian cancer tumor model (bioluminescence). Also noted: species or system mice.
Description: Ovarian adenocarcinomas were induced in genetically-engineered K-ras^LSL/+/Pten^fl/fl mice via intrabursal delivery of adenovirus carrying Cre recombinase, as described previously. Tumor cells were engineered to express luciferase once activated by Adeno-Cre, in order to make tumor imaging feasible before and after drug treatment.
Statistical analysis of the toxicity data was analyzed using a one-way ANOVA test with the Prism 5™ software.
Another series concerns Lewis lung carcinoma. The protocol: (§2) The LLC Lung Cancer cells and 4T1 Breast Cancer cells ([…]) were implanted subcutaneously in the flanks of 4-week-old C57/BL6 and BALB/c mice (weighing 20 g, Charles River Laboratories, MA) respectively. The drug therapy was started after the tumors attained volume of 50 mm^3. […] PBS (100 μL) administered by tail-vein injection was used as a control for drug treatment. The tumor volumes and body weights were monitored on a daily basis. The animals were sacrificed when the average tumor size of the control exceeded 2000 mm^3 in the control group. The tumors were harvested immediately following sacrifice and stored in 10% formalin for further analysis. All animal procedures were approved by Harvard institutional IUCAC.
(§3) The tissues were fixed in 10% formalin, paraffin embedded, sectioned and stained with H&E at the Harvard Medical School Core Facility. Tumor and Kidney paraffin sections were deparaffinized and stained with standard TMR-red fluorescent terminal deoxynucleotidyl transferase-mediated dUTP nick end labeling (TUNEL) kit following the manufacturer's protocol (In Situ Cell Death Detection Kit, TMR Red, Roche). Images were obtained using a Nikon Eclipse TE2000 fluorescence microscope equipped with red filter.
(§4) Body weights were recorded daily to assess toxicity. In addition, livers and spleens were removed at the end of treatment to record weights and perform extensive pathological examination to assess toxicity of vital organs. Cell apoptosis in vital organs was measured using TUNNEL assay. Statistical analysis of the toxicity data was performed using a two-way ANOVA test with the Prism 5™ software.

The test system of another series is 4T1 breast cancer. The conditions noted are these: mouse, in vivo. The protocol: as §2, §3, §4

Turning to `N.N.O=C([O-])C1(C(=O)[O-])CCC1.[Pt+2]` [Carboplatin, cis-Diammine-(1,1-cyclobutanedicarboxylato) platinum(II)], the “effect on viability of LLC cells” value in series [1] is recorded as “no effect at this concentration range”. In the series on 4T1 breast cancer cells, the “effect on viability of 4T1 breast cancer cells” value is listed as “least effective of all platinates tested”. Further, the EC50 (commonly the concentration that produces a half-maximal response) in series [2] (LLC cells, 48 h) was 14.8 ± 0.38 µM. The 50% inhibitory concentration (IC50) (in general, the concentration at which inhibition is half-maximal) in series [2] (LLC cells) stood at 14.8 ± 0.38 µM. Further, in series [3], the “effect on viability of CP20 cells” value was “no effect at this concentration range”.
As for `N.N.[Cl][Pt][Cl]` [Cisplatin, cis-dichlorodiammineplatinum(II)], in series [2] (48 h), the “effect on LLC cell viability” value is recorded as “identical cell kill”. In series [2] (LLC cells), the “concentration for complete cell kill” value is given as “greater than 20 uM” and the IC50 was 3.87 ± 0.37 µM. In addition, the EC50 in series [2] (LLC cells, 48 h) was found to be 3.87 ± 0.37 µM. Besides, the “apoptosis in the kidney (TUNEL)” value in series [4] (3 mg/kg or equivalent Pt concentration) was “significant apoptosis in the kidney”. Also, the body weight result in series [4] (daily recording) is “significant loss of body weight”. In the series on Lewis lung carcinoma (dose equivalent to 1.25 mg/kg of cisplatin, three doses i.v.), the tumor growth inhibition result is recorded as “only a minor tumor growth inhibition”. Moreover, in the series on Lewis lung carcinoma (mouse, in vivo), the “apoptosis in kidney (TUNEL)” value is given as “significant apoptosis”, the “apoptosis in tumor (TUNEL)” value is “significant induction of apoptosis” and the “kidney H&E pathology” value is listed as “significant tubular necrosis”. Also, the “tumor inhibition, dose dependence” value with Lewis lung carcinoma (three doses i.v., 1.25 and 3 mg/kg) is recorded as “dose-dependent tumor inhibition”. Also, the “apoptosis in the kidney” value with 4T1 breast cancer is “significant apoptosis in the kidney”. The “effect on viability of CP20 cells” value in series [3] is listed as “only at the highest concentration”.

Values taken from patent publication US10512696B2, “Nanoscale platinum compounds and methods of use thereof” (priority 2009, dated 2019).
